Data from article PMC6737244, “Cathelicidin Peptides Restrict Bacterial Growth via Membrane Perturbation and Induction of Reactive Oxygen Species” (mBio, 2019).
Ends that are not written are not given here.

Tests used:
V. cholerae = experiment: Survival (CFU) with B22 with or without ROS scavengers or SodA
Protocol: The membrane-permeable iron chelating agent 2,2′-dipyridyl (DP) efficiently chelates free Fe^2+ and the scavenger thiourea (TU) directly quenches hydroxyl radicals generated by the Fenton reaction.
To inhibit Fenton chemistry in the cytoplasm, cells were pretreated with 75 μM concentration of the membrane-permeable agent 2,2′-dipyridyl (DP), which efficiently chelates free Fe^2+, and 150 μM concentration of the scavenger thiourea (TU), which directly quenches Fenton-generated hydroxyl radicals ([50]). These concentrations of DP and TU were confirmed not to affect bacterial growth.

Escherichia coli IU342 = experiment: MIC, broth microdilution; type: cell-based; conditions: CAMHB, 16 to 18 h, at least three independent assays
Protocol: MICs were determined by using the broth microdilution method based on the general recommendations of the Clinical and Laboratory Standards Institute (CLSI). Bacteria were grown in CAMHB overnight. They were then diluted into fresh medium the following morning and grown to early log phase. The cultures were then diluted to approximately 5 × 10^5 CFU ml^−1, and 100 μl was added to sterile 96-well polypropylene microtiter plates (Corning, NY, USA) preloaded with twofold dilutions of antimicrobial peptides. […] All MIC assays were determined from at least three independent assays.

E. coli UTI89 = experiment: Differential gene expression after peptide exposure; type: cell-based, Escherichia coli; conditions: 30 nM, 5-min exposure
Protocol: To determine the mechanism by which sublethal concentrations of cathelicidins affect bacterial cell physiology, we sought to analyze gene expression prior to and after a 5-min exposure to 30 nM B22a. The chromosomal integron of V. cholerae contains hundreds of repeats and horizontally acquired genes of unknown function ([20][–][23]). Moreover, many of these genes are duplicated, which can further complicate interpreting gene expression patterns. We elected to examine peptide-induced expression changes in E. coli to simplify gene identification and assignment of potential functions. Significant changes in expression were identified for genes whose products participate in global processes such as protein synthesis, protein folding, protein secretion, intracellular pH, membrane modification, c-di-GMP production, peptidoglycan biosynthesis, respiration, and detoxification of reactive oxygen species (ROS) (Table 2). Perturbation of peptidoglycan synthesis was consistent with the membrane blebbing we observed following B22 and B22a treatment. Other notable changes included arnF, the product of which modifies the lipid A moiety of lipopolysaccharide (LPS) with 4-amino-4-deoxy-L-arabinose (L-Ara4N) to confer resistance to polymyxin and cationic antimicrobial peptides in E. coli and Salmonella enterica serotype Typhimurium ([24], [25]). c-di-GMP-dependent Psl exopolysaccharide production is part of the first line of defense against reactive oxygen species in P. aeruginosa ([26]). The respiratory chain is a major source of periplasmic ROS such as superoxide (O2^−) and hydrogen peroxide (H2O2) ([27]), and cytosolic flavoenzymes such as fumarate reductase (Frd) can generate O2^−, H2O2, and hydroxyl radical (^·OH) that damages membrane lipids, DNA, and proteins. ArcA is important for regulating bacterial resistance to ROS under aerobic conditions, and OxyR directly senses H2O2 to induce expression of a slew of genes, including ahpC and gshA, to counter H2O2 accumulation ([28], [29]).

FRKKLKKLFKKLSPVIPLLKLG [B22]
Killing of V. cholerae overproducing SodA (V. cholerae; 2.5 μM B22): completely suppressed
Decrease in survival of V. cholerae overexpressing SodA (V. cholerae; 5 μM B22): 10 fold
Decrease in survival (V. cholerae; V. cholerae, 2.5 μM B22): 3 log10 units
Increase in survival by preincubation with 75 μM DP and 150 mM TU in combination (V. cholerae; V. cholerae, prior to addition of B22): 13 fold

FRKKLKKLFKKLSPVIPLLKLG-NH2 [B22a]
MIC (Escherichia coli IU342): 2 µM
Log2 fold change, ahpC (UTI89_C0608) (E. coli UTI89): −1.35
Log2 fold change, ansB (UTI89_C3346) (E. coli UTI89): −3.26
Log2 fold change, arcA (UTI89_C5174) (E. coli UTI89): −1.55
Log2 fold change, ardB (UTI89_C2011) (E. coli UTI89): −1.39
Log2 fold change, arnF (yfbJ) (UTI89_C2541) (E. coli UTI89): 1.44
Log2 fold change, arrD (UTI89_C1304) (E. coli UTI89): 2.56
Log2 fold change, asnA (UTI89_C4299) (E. coli UTI89): −1.38
Log2 fold change, asnS (UTI89_C1002) (E. coli UTI89): −1.19
Log2 fold change, aspA (UTI89_C4736) (E. coli UTI89): −2.31
Log2 fold change, ccmH (UTI89_C2472) (E. coli UTI89): −1.19
Log2 fold change, citB (UTI89_C0624) (E. coli UTI89): −2.71
Log2 fold change, cspA (UTI89_C4097) (E. coli UTI89): 1.44
Log2 fold change, cspG (UTI89_C1051) (E. coli UTI89): 1.67
Log2 fold change, cybC (UTI89_C4840) (E. coli UTI89): −2.73
Log2 fold change, cyoD (UTI89_C0453) (E. coli UTI89): 1.80
Log2 fold change, cysM (UTI89_C2754) (E. coli UTI89): −2.60
Log2 fold change, dapC (UTI89_C3862) (E. coli UTI89): −1.97
Log2 fold change, dcuA (UTI89_C4735) (E. coli UTI89): −2.63
Log2 fold change, dgkA (UTI89_C4612) (E. coli UTI89): −1.71
Log2 fold change, eno (UTI89_C3148) (E. coli UTI89): −2.02
Log2 fold change, evgS (UTI89_C2702) (E. coli UTI89): 1.30
Log2 fold change, fabA (UTI89_C1019) (E. coli UTI89): −1.48
Log2 fold change, fdoG (UTI89_C4481) (E. coli UTI89): 1.13
Log2 fold change, fimX (UTI89_C0338) (E. coli UTI89): 1.57
Log2 fold change, frdA (UTI89_C4754) (E. coli UTI89): −1.78
Log2 fold change, frdB (UTI89_C4753) (E. coli UTI89): −2.97
Log2 fold change, fusA (UTI89_C3842) (E. coli UTI89): −1.22
Log2 fold change, gadX (UTI89_C4048) (E. coli UTI89): 1.74
Log2 fold change, gapA (UTI89_C1975) (E. coli UTI89): −2.34
Log2 fold change, gmhB (UTI89_C0216) (E. coli UTI89): −2.02
Log2 fold change, gnd (UTI89_C2302) (E. coli UTI89): −1.41
Log2 fold change, gshA (UTI89_C3050) (E. coli UTI89): −1.92
Log2 fold change, gsk (UTI89_C0505) (E. coli UTI89): 1.20
Log2 fold change, holE (UTI89_C2044) (E. coli UTI89): 2.85
Log2 fold change, hslJ (UTI89_C1622) (E. coli UTI89): −1.15
Log2 fold change, manY (UTI89_C2016) (E. coli UTI89): −1.16
Log2 fold change, marR (UTI89_C1833) (E. coli UTI89): 1.29
Log2 fold change, mcbR (UTI89_C1669) (E. coli UTI89): 2.96
Log2 fold change, mdoG (UTI89_C1172) (E. coli UTI89): 1.63
Log2 fold change, mrcB (UTI89_C0165) (E. coli UTI89): 1.85
Log2 fold change, mrp (UTI89_C2387) (E. coli UTI89): −1.64
Log2 fold change, mtgA (UTI89_C3644) (E. coli UTI89): 1.90
Log2 fold change, napC (UTI89_C2480) (E. coli UTI89): −2.52
Log2 fold change, narP (UTI89_C2471) (E. coli UTI89): −2.02
Log2 fold change, ompC (UTI89_C2497) (E. coli UTI89): −1.11
Log2 fold change, ompT (UTI89_C0566) (E. coli UTI89): 1.11
Log2 fold change, orf (UTI89_C0124) (E. coli UTI89): 1.89
Log2 fold change, orf (UTI89_C1095) (E. coli UTI89): 1.47
Log2 fold change, orf (UTI89_C1152) (E. coli UTI89): 1.40
Log2 fold change, orf (UTI89_C1286) (E. coli UTI89): 1.09
Log2 fold change, orf (UTI89_C3928) (E. coli UTI89): 1.10
Log2 fold change, orf (UTI89_C4380) (E. coli UTI89): −1.48
Log2 fold change, oxyR (UTI89_C4554) (E. coli UTI89): 1.11
Log2 fold change, pflB (UTI89_C0974) (E. coli UTI89): −2.71
Log2 fold change, ptsK (UTI89_C2748) (E. coli UTI89): −1.06
Log2 fold change, rpmE (UTI89_C4521) (E. coli UTI89): 1.08
Log2 fold change, rtcA (UTI89_C3920) (E. coli UTI89): −2.90
Log2 fold change, sdaB (UTI89_C3168) (E. coli UTI89): −3.16
Log2 fold change, sdaC (UTI89_C3167) (E. coli UTI89): −2.21
Log2 fold change, secB (UTI89_C4151) (E. coli UTI89): −2.45
Log2 fold change, secY (UTI89_C3746) (E. coli UTI89): −1.36
Log2 fold change, serS (UTI89_C0908) (E. coli UTI89): −2.29
Log2 fold change, torY (UTI89_C2077) (E. coli UTI89): 1.03
Log2 fold change, tpiA (UTI89_C4503) (E. coli UTI89): −1.16
Log2 fold change, uspE (UTI89_C1604) (E. coli UTI89): 1.28
Log2 fold change, wbgM (UTI89_C2303) (E. coli UTI89): 1.29
Log2 fold change, xdhC (UTI89_C3253) (E. coli UTI89): −2.37
Log2 fold change, yaaY (UTI89_C0026) (E. coli UTI89): 1.32
Log2 fold change, yacH (UTI89_C0130) (E. coli UTI89): 1.39
Log2 fold change, yaiS (UTI89_C2239) (E. coli UTI89): 1.92
Log2 fold change, ybcS1 (UTI89_C1303) (E. coli UTI89): 2.14
Log2 fold change, ybfN (UTI89_C0686) (E. coli UTI89): 1.22
Log2 fold change, ybjD (UTI89_C0880) (E. coli UTI89): 1.31
Log2 fold change, ycaD (UTI89_C0972) (E. coli UTI89): −1.66
Log2 fold change, yciL (UTI89_C1537) (E. coli UTI89): −1.27
Log2 fold change, ydeH (UTI89_C1760) (E. coli UTI89): 4.38
Log2 fold change, ydiU (UTI89_C1899) (E. coli UTI89): 1.27
Log2 fold change, yecR (UTI89_C2105) (E. coli UTI89): −2.29
Log2 fold change, yehE (UTI89_C2386) (E. coli UTI89): −1.09
Log2 fold change, yfaE (UTI89_C2517) (E. coli UTI89): −2.34
Log2 fold change, yfbR (UTI89_C2573) (E. coli UTI89): −1.89
Log2 fold change, yfcD (UTI89_C2583) (E. coli UTI89): −1.88
Log2 fold change, yfeK (UTI89_C2753) (E. coli UTI89): −1.41
Log2 fold change, ygdI (UTI89_C3181) (E. coli UTI89): 1.30
Log2 fold change, ygdI (UTI89_C3182) (E. coli UTI89): 1.31
Log2 fold change, ygdR (UTI89_C3236) (E. coli UTI89): 1.12
Log2 fold change, yghU (UTI89_C3411) (E. coli UTI89): −2.15
Log2 fold change, yhbQ (UTI89_C3582) (E. coli UTI89): −1.70
Log2 fold change, yhbW (UTI89_C3587) (E. coli UTI89): −1.14
Log2 fold change, yhcO (UTI89_C3670) (E. coli UTI89): 1.80
Log2 fold change, yhdL (UTI89_C3736) (E. coli UTI89): 1.09
Log2 fold change, yjbK (UTI89_C4616) (E. coli UTI89): 1.10
Log2 fold change, yjcC (UTI89_C4647) (E. coli UTI89): −1.25
Log2 fold change, yjeH (UTI89_C4739) (E. coli UTI89): −1.27
Log2 fold change, yjeI (UTI89_C4742) (E. coli UTI89): −1.76
Log2 fold change, yjgF (ridA) (UTI89_C4848) (E. coli UTI89): 2.24
Log2 fold change, ykgH (UTI89_C0333) (E. coli UTI89): −2.93
Log2 fold change, ymdC (UTI89_C1169) (E. coli UTI89): 1.04
Log2 fold change, ymgA (UTI89_C1348) (E. coli UTI89): 1.77
Log2 fold change, ynfJ (UTI89_C1779) (E. coli UTI89): −1.82
Log2 fold change, ynhG (UTI89_C1870) (E. coli UTI89): 1.34
Log2 fold change, yqgD (UTI89_C3330) (E. coli UTI89): 1.11
Log2 fold change, yrdA (UTI89_C3724) (E. coli UTI89): 1.02
Log2 fold change, yrdE (UTI89_C3686) (E. coli UTI89): −2.10
